{"source": "patent US20110015080A1", "about": "“Solution-based methods for RNA expression profiling” (MASSACHUSETTS INSTITUTE OF TECHNOLOGY, priority 2005, published 2011)", "key": {"HL-60 cells": {"system": "HL-60 cells", "test": "Bead-based miRNA expression profiling of HL-60 cells treated with all-trans retinoic acid", "type": "cell-based, human", "conditions": "1 μM all-trans retinoic acid, 1, 3 and 5 days", "protocol": "Details of sample information are available in Table 9. Total RNAs were prepared from tissues or cell lines using TRIzol (INVITROGEN™, Carlsbad, Calif.), as described (Ramaswamy et al., 2001), and in compliance with IRB protocols. Leukemia bone marrow mononuclear cells were collected from patients treated at ST. JUDE […]′S […] HOSPITAL™ and at DANA-FARBER CANCER […]™ and their immunophenotype and genotype determined as previously described (Ferrando et al., 2002; Yeoh et al., 2002). Normal mouse lung and mouse lung cancer samples were collected from KRasLA1 mice, and genotyped as described (Johnson et al., 2001). Lungs from four- to five-month old mice were inflated with phosphate-buffered saline prior to removal. Individual lung tumors and normal lungs were dissected and immediately frozen on dry ice before RNA preparation. HL-60 cells were plated at 1.5×10^5 cell/ml and induced to differentiate by 1 μM all-trans retinoic acid (SIGMA™, St. Louis, Mo.; in ethanol). […]\nmiRNA capture probes were 5′-amino-modified oligonucleotides with a 6-carbon linker (IDT). […] Median fluorescence intensity values were measured.\nProfiling data were first scaled according to the post-labeling-controls and then the pre-labeling-controls, in order to normalize readings from different probe/bead sets for the same sample, and to normalize for the labeling efficiency, as detailed in Materials and Methods of Example 3. […]"}, "[1]": {"system": "HL-60 acute myeloblastic leukemia cells", "conditions": "treatment during a course of 5 days (Stegmaier et al., 2004); cited from earlier work"}}, "note": "Entries after “also recorded” stand apart in the source; their conditions may differ.", "data": [{"smiles": "CC1=C(/C=C/C(C)=C/C=C/C(C)=C/C(=O)O)C(C)(C)CCC1", "note": "[tretinoin, all-trans-retinoic acid]", "values": [{"measurement": "miRNA expression in HL-60 cells", "setting": "HL-60 cells", "value": "induction of many miRNAs coincident with differentiation"}, {"measurement": "miRNA expression in HL-60 cells", "setting": "HL-60 cells; listed as ATRA", "value": "increased expression of many miRNAs"}, {"measurement": "differentiation of HL-60 cells", "setting": "[1]", "value": "potent inducer of neutrophilic differentiation; also recorded: differentiate with increasing neutrophil characteristics"}]}]}
